# Assay results published in patent publication US8895499B2, “β-hairpin peptidomimetics” (Polyphor AG, priority 2010, dated 2014).
# Peptide text beside a SMILES is read from it.
# Columns and labels:
# in vitro = format: cell-based
# Protocol: The cytotoxicity of the peptides to HELA cells (Acc57) and COS-7 cells (CRL-1651) was determined using the MTT reduction assay (T. Mossman, J. Immunol. Meth. 1983, 65, 55-63; M. V. Berridge, A. S. Tan, Arch. Biochem. Biophys. 1993, 303, 474-482). Briefly, the method was as follows: 4000 HELA cells/well and 3400 COS-7 cells/well were seeded and grown in 96-well microtiter plates for 24 h at 37° C. at 5% CO2. Thereafter, time zero (Tz) was determined by MTT reduction (see below). The supernatant of the remaining wells was discarded, and fresh medium and compounds in serial dilutions (12.5, 25 and 50 μg/mL, triplicates) were pipetted into the wells. After incubation of the cells for 48 h at 37° C. at 5% CO2 the supernatant was discarded again and 100 μL MTT reagent (0.5 mg/mL in RPMI1640 and DMEM, respectively)/well was added. Following incubation at 37° C. for 2-4 h the media were aspirated and the cells were spiked (100 μL isopropanol/well). The absorbance of the solubilized formazan was measured at 595 nm (OD595peptide). For each concentration averages were calculated from triplicates. The percentage of growth was calculated as follows: (OD595peptide-OD595Tz-OD595Empty well)/(OD595Tz-OD595Empty well)×100%. The GI50 (Growth Inhibition) concentrations were calculated for each peptide by using a trend line function for the concentrations (50, 25, 12.5 and 0 μg/mL), the corresponding percentages and the value 50, (=TREND (C50:C0%50:%0,50).
# Shigella boydii DSM 7532 = details: Mueller-Hinton II broth + 0.02% BSA, 18-20 hours at 37° C.
# Protocol: […] colony forming units (CFU)/mL. Aliquots (50 μl) of inoculate were added to 50 μl of MH broth+0.02% BSA containing the peptide in serial two-fold dilutions. The following microorganisms were used to determine antibiotic selectivity of the peptides: Bacillus subtilis DSM 10 and Shigella boydii DSM 7532.
# [1] = test system: human red blood cells (hRBC); format: cell-based; details: red cells of human, 1 h
# Protocol: The peptides were tested for their hemolytic activity against human red blood cells (hRBC). Fresh hRBC were washed three times with phosphate buffered saline (PBS) and centrifuged for 10 min at 2000×g. Compounds (100 μg/mL) were incubated with 20% hRBC (v/v) for 1 h at 37° C. and shaking at 300 rpm. The final erythrocyte concentration was approximately 0.9×10^9 cells/mL. A value of 0% and 100% cell lyses, respectively, was determined by incubation of hRBC in the presence of PBS containing 0.001% acetic acid and 2.5% Triton X-100 in H2O, respectively. The samples were centrifuged, the supernatants were 8-fold diluted in PBS buffer and the optical densities (OD) were measured at 540 nm. The 100% lyses value (OD540H2O) gave an OD50 of approximately 0.5-1.0.
# Percent hemolysis was calculated as follows: (OD540peptide/OD540H2O)×100%.
Compound,GI50 at 48 h (in vitro; African green monkey),GI50 at 48 h (in vitro; human),Shigella boydii DSM 7532 MIC (Shigella boydii DSM 7532),Hemolysis at 100 μg/mL [1]
"CC[C@H](C)[C@@H]1NC(=O)[C@H](CCCNC(=N)N)NC(=O)[C@H](Cc2c[nH]c3ccccc23)NC(=O)[C@@H]2CCCN2C(=O)[C@H]2CCCN2C(=O)[C@H](C)NC(=O)[C@H](CCC(N)=O)NC(=O)[C@H](Cc2ccc(O)cc2)NC(=O)[C@H](CCCNC(=N)N)NC(=O)[C@H](CCC(N)=O)NC(=O)[C@H](CC(N)=O)NC(=O)[C@@H](CCCNC(=N)N)NC(=O)[C@H]([C@@H](C)CC)NC(=O)[C@H](CCCNC(=N)N)NC1=O [Example 15] (HELM PEPTIDE1{W.R.I.R.I.[dR].N.Q.R.Y.Q.A.[dP].P}$PEPTIDE1,PEPTIDE1,1:R1-14:R2$$$V2.0)",> 50 µg/mL,> 50 µg/mL,16 µg/mL,0.0%
"CC[C@H](C)[C@@H]1NC(=O)[C@H](CCCNC(=N)N)NC(=O)[C@H]([C@@H](C)CC)NC(=O)[C@H](CCCNC(=N)N)NC(=O)[C@H](Cc2c[nH]c3ccccc23)NC(=O)[C@@H]2CCCN2C(=O)[C@H]2CCCN2C(=O)[C@H](C)NC(=O)[C@H](CCC(N)=O)NC(=O)[C@H](CC(C)C)NC(=O)[C@H](CCCNC(=N)N)NC(=O)[C@H](CCC(N)=O)NC(=O)[C@H](CC(N)=O)NC(=O)[C@H](CCN)NC1=O [Example 10] (HELM PEPTIDE1{W.R.I.R.I.[Dab].N.Q.R.L.Q.A.[dP].P}$PEPTIDE1,PEPTIDE1,1:R1-14:R2$$$V2.0)",> 50 µg/mL,> 50 µg/mL,>16 µg/mL,0.4%
"CC[C@H](C)[C@@H]1NC(=O)[C@H](CCCNC(=N)N)NC(=O)[C@H](Cc2c[nH]c3ccccc23)NC(=O)[C@@H]2CCCN2C(=O)[C@H]2CCCN2C(=O)[C@H](CCCNC(=N)N)NC(=O)[C@H](CCCNC(=N)N)NC(=O)[C@H](CC(C)C)NC(=O)[C@H](CCN)NC(=O)[C@H](CCCCN)NC(=O)[C@H](CC(N)=O)NC(=O)[C@@H](CCCNC(=N)N)NC(=O)[C@H]([C@@H](C)CC)NC(=O)[C@H](CCCNC(=N)N)NC1=O [Example 1] (HELM PEPTIDE1{W.R.I.R.I.[dR].N.K.[Dab].L.R.R.[dP].P}$PEPTIDE1,PEPTIDE1,1:R1-14:R2$$$V2.0)",> 50 µg/mL,> 50 µg/mL,8 µg/mL,0.0%
"CC[C@H](C)[C@@H]1NC(=O)[C@H](CCCNC(=N)N)NC(=O)[C@H](Cc2c[nH]c3ccccc23)NC(=O)[C@@H]2CCCN2C(=O)[C@H]2CCCN2C(=O)[C@H](C)NC(=O)[C@H](CCC(N)=O)NC(=O)[C@H](CC(C)C)NC(=O)[C@H](CCCNC(=N)N)NC(=O)[C@H](CCC(N)=O)NC(=O)[C@H](CCC(N)=O)NC(=O)[C@@H](CCCNC(=N)N)NC(=O)[C@H]([C@@H](C)CC)NC(=O)[C@H](CCCNC(=N)N)NC1=O [Example 11] (HELM PEPTIDE1{W.R.I.R.I.[dR].Q.Q.R.L.Q.A.[dP].P}$PEPTIDE1,PEPTIDE1,1:R1-14:R2$$$V2.0)",> 50 µg/mL,> 50 µg/mL,>16 µg/mL,0.0%
"CC[C@H](C)[C@@H]1NC(=O)[C@H](CCCNC(=N)N)NC(=O)[C@H](Cc2c[nH]c3ccccc23)NC(=O)[C@@H]2CCCN2C(=O)[C@H]2CCCN2C(=O)[C@H](CCC(N)=O)NC(=O)[C@H](CCCNC(=N)N)NC(=O)[C@H](CC(C)C)NC(=O)[C@H](CCCNC(=N)N)NC(=O)[C@H](CCCCN)NC(=O)[C@H](CC(N)=O)NC(=O)[C@@H](CCCNC(=N)N)NC(=O)[C@H]([C@@H](C)CC)NC(=O)[C@H](CCCNC(=N)N)NC1=O [Example 2] (HELM PEPTIDE1{W.R.I.R.I.[dR].N.K.R.L.R.Q.[dP].P}$PEPTIDE1,PEPTIDE1,1:R1-14:R2$$$V2.0)",> 50 µg/mL,> 50 µg/mL,4 µg/mL,0.0%
"CC[C@H](C)[C@@H]1NC(=O)[C@H](CCCNC(=N)N)NC(=O)[C@H](Cc2c[nH]c3ccccc23)NC(=O)[C@@H]2CCCN2C(=O)[C@H]2CCCN2C(=O)[C@H](C)NC(=O)[C@H](CCC(N)=O)NC(=O)[C@H](Cc2c[nH]c3ccccc23)NC(=O)[C@H](CCCNC(=N)N)NC(=O)[C@H](CCC(N)=O)NC(=O)[C@H](CC(N)=O)NC(=O)[C@@H](CCCNC(=N)N)NC(=O)[C@H]([C@@H](C)CC)NC(=O)[C@H](CCCNC(=N)N)NC1=O [Example 16] (HELM PEPTIDE1{W.R.I.R.I.[dR].N.Q.R.W.Q.A.[dP].P}$PEPTIDE1,PEPTIDE1,1:R1-14:R2$$$V2.0)",> 50 µg/mL,> 50 µg/mL,16 µg/mL,0.5%
"CC[C@H](C)[C@@H]1NC(=O)[C@H](CCCNC(=N)N)NC(=O)[C@H](Cc2c[nH]c3ccccc23)NC(=O)[C@@H]2CCCN2C(=O)[C@H]2CCCN2C(=O)[C@H](C)NC(=O)[C@H](CCC(N)=O)NC(=O)[C@H](CC(C)C)NC(=O)[C@H](CCCNC(=N)N)NC(=O)[C@H](CCC(N)=O)NC(=O)[C@H](CC(N)=O)NC(=O)[C@@H](CCCNC(=N)N)NC(=O)[C@H]([C@@H](C)CC)NC(=O)[C@H](CCN)NC1=O [Example 7] (HELM PEPTIDE1{W.R.I.[Dab].I.[dR].N.Q.R.L.Q.A.[dP].P}$PEPTIDE1,PEPTIDE1,1:R1-14:R2$$$V2.0)",> 50 µg/mL,> 50 µg/mL,>16 µg/mL,0.0%
"CC[C@H](C)[C@@H]1NC(=O)[C@H](CCN)NC(=O)[C@H](Cc2c[nH]c3ccccc23)NC(=O)[C@@H]2CCCN2C(=O)[C@H]2CCCN2C(=O)[C@H](C)NC(=O)[C@H](CCC(N)=O)NC(=O)[C@H](CC(C)C)NC(=O)[C@H](CCCNC(=N)N)NC(=O)[C@H](CCC(N)=O)NC(=O)[C@H](CC(N)=O)NC(=O)[C@@H](CCCNC(=N)N)NC(=O)[C@H]([C@@H](C)CC)NC(=O)[C@H](CCCNC(=N)N)NC1=O [Example 5] (HELM PEPTIDE1{W.[Dab].I.R.I.[dR].N.Q.R.L.Q.A.[dP].P}$PEPTIDE1,PEPTIDE1,1:R1-14:R2$$$V2.0)",> 50 µg/mL,> 50 µg/mL,16 µg/mL,0.0%
